Common to all, as to format: cell-based, Escherichia coli
Assay [1] concerns E. coli JM109. The assay is described as follows: Growth and GFPuv expression in E. coli JM109, shake flask cultivation in mineral medium. Conditions: additive 5 mM, 20 h, mean of two. As to the method: Precultures are prepared in 250 mL baffled shake flasks containing 25 mL sterile mineral medium [macronutrients in g/L: Glycerol (25), (NH4)2-citrate (1.0), Na2HPO4 2H2O (9.0), KH2PO4 (1.82), NH4Cl (1.52), MgSO4 (0.12), (NH4)2SO4 (0.6); Ampicillin ([…]); micronutrients in mg/L: Na2-EDTA (8.4), thiamine (4.5), Fe(III) citrate (12.5), Na2MoO4 2×H2O (2.5), H3BO3 (3), CoCl2 6×H2O (2.5), CuSO4 5×H2O (0.45) MnCl24×H2O (15), ZnCl2 (8) adjusted to pH 7.0]. Cultures are inoculated with 250 μL of a glycerol stock stored at −80° C. of E. coli JM109 (Promega Inc, Wallisellen, C H; Genotype: endA1, recA1, gyrA96, thi, hsdR17 (rk^−, mk^+), re/A1, supE44, Δ(lac-proAB), [F″ traD36, proAB, laql^qZΔM15]) harboring the plasmid pBAD-GFPuv (Biorad Inc., Reinach, C H; Genbank U62637.1, containing the GFPuv gene under control of the ara promoter; GFP=Green Fluorescent Protein). Precultures are incubated at 37° C. for 10-12 h.
Experimental cultures are performed in a volume of 25 mL of the above described medium in 250 mL baffled shake flasks. Stabilizers according to the invention are added to a final concentration of 5 mM as indicated from sterile stock solutions. Cultures are started by inoculating with the preculture to an optical density at 600 nm (OD600) of 0.25. Growth of the culture is monitored by reading optical density at 600 nm. Cultures are induced by adding L-arabinose to a final concentration of 0.2% (w/v) when the OD600 reaches 0.5. Samples of 1 mL are taken 6 and 20 h after induction for OD600 reading and GFP quantification. For GFP quantification 1 mL of the culture is harvested after 2-4 h and after 20 h after induction. Cells are collected by centrifugation at 16 000 g and the cell pellet is stored at −20° C. for further analysis.
(§1) The measurement of GFP expression by whole cell fluorescence measurements follows the procedure of Scholz et al. (Eur. J. Biochem., 2000,267, 1565-1570). Frozen cell pellets are thawed, resuspended in 1 mL PBS [NaCl (8 g/L), KCl (0.2), of Na2HPO4 (1.44), KH2PO4 (0.24), adjusted to pH 7.4] and subsequently diluted to an optical density of 0.1. GFP fluorescence of whole cells is measured in a Eclipse Fluorometer (Varian) with an excitation wavelength of 400 nm and an emission wavelength of 512 nm. Specific relative fluorescence [RFU/OD600] is calculated by dividing the relative fluorescence emmision units by the optical density of the suspension at 600 nm.

Assay [2] deals with E. coli HM125. The assay can be described thus: Growth and expression of FimH-CRD in E. coli HM125, shake flask cultivation in mineral medium. The settings on record: for mg FimH/g cell: control 0.81; for FimH / Cell pellet: mean of triplicate; for FimH: control 6.48 ± 0.36; for Cell pellet: control 7.99 ± 0.25. The text has this: Standard molecular techniques are used for the cloning of the FimH carbohydrate recognition domain (FimH-CRD). The plasmid pfimHs-trc, encoding FimH lectin domain (1-156 amino acids M. Vetsch P et. al. 2002—J. Mol. Biol. 322: 827-840), is kindly provided by R. Glockshuber (ETH Zürich, Switzerland). The FimH-CRD fragment is amplified by polymerase chain reaction using specific forward primer containing the restriction site NdeI and a specific reverse primer containing the thrombin cleavage site and the restriction site XhoI, respectively. The insert is ligated into the corresponding cloning site in pET21b. The resulting contrast is named pET21b-FimH-CRD.
Precultures are prepared in 25 mL sterile LB medium [Tryptone (10.0 g/L), yeast extract (5.0 g/L), NaCl (10.0 g/L), ampicillin 100 (mg/L); adjusted to pH 7.0 with NaOH]. Cultures are inoculated with a glycerol stock stored at −80° C. of the protease deficient strain E. coli HM125 (Meerman H J & Georgiou G. 1994. Biotechnology (NY) 2, 1107-1110) harboring the plasmid pET21b-FimH-CRD Vector. Precultures are incubated at 37° C. for 10-12 h. Experimental cultures are performed in a volume of 500 mL of modified M9 medium [Na2HPO4×7H2O (12.8 g/L), KH2PO4 (3 g/L), NaCl (0.5 g/L), NH4Cl (1 g/L), D-glucose (4 g/L), MgSO4 (0.12 g/L), CaCl2 (0.01 g/L) and vitamins (in mg/L): riboflavin (0.1), choline chloride (1), folic Acid (1), niacinamide (1), p-amino benzoic acid (1), pyridoxal-HCl (1), thiamine-HCl (1), myo-lnositol (2)] supplemented with 100 mg/L ampicillin. Cultures are inoculated with 5 mL of the preoculture and grown at 30° C. and 150 rpm) until the optical density at 600 nm (0D600) reached 0.8-1.0. Then 1 mM IPTG and the stabilizer(s) (obligatory additive) according to the invention are added to final concentrations of 5, 10 and 20 mM as indicated from sterile stock solutions and the cultures are grown overnight. Then the cells are cooled on ice for 5 min and harvested by centrifugation at 5′000 rpm for 20 min at 4° C. Cell are harvested by centrifugation and biomass is quantified by weighing the wet cell pellets. The pellet is suspended in a cold solution of 50 mM Tris-HCl, pH 7.5, 150 mM NaCl, 5 mM EDTA, 1 mg/mL polymyxin B sulfate and stirred for two hours at 4° C. After centrifugation at 11′000 rpm for 20 min at 4° C., the supernatant (periplasmic extract) is dialyzed overnight against 50 mM NaH2PO4, 300 mM NaCl and 10 mM imidazole, pH 8 (binding buffer) and applied to a Ni-NTA column (Sigma, Buchs, Switzerland) attached to a BioLogic fast protein liquid chromatography system (BioRad, Reinach BL, Switzerland). The column is washed with binding buffer and afterwards eluted with 50 mM NaH2PO4, 300 mM NaCl and 250 mM imidazole, pH 8 (elution buffer). Fractions containing FimH-CRD-Th-6H is are pooled and dialyzed against water and then against 20 mM HEPES, 150 mM NaCl and 1 mM CaCl2, pH 7.4.
The concentration of protein is determined by HPLC method (Agilent 1100/1200 series) using BSA as standard (Sigma). The column Poros R1/10 10 μm (100×2 mm, Morvay Analytik) is kept at 60° C.; eluents are A: 0.1% trifluoroacetic acid (TFA) in H2O and B: 90% MeCN+0.09% TFA. A gradient of 20% B to 90% B is run within 20 min at a flow rate of 0.2 mL/min. The detection is monitored at 210 nm. Results are compiled in the following tables 5 and 6.

In assay [3] the test system is E. coli BL21. The assay is described as follows: Growth and GFPuv expression in E. coli BL21 (DE3), shake flask batch culture in complex medium. As to the method: as §1
Precultures are prepared in 250 mL baffled shake flasks containing 25 mL sterile LB medium [Tryptone (10.0 g/L), yeast extract (5.0), NaCl (10.0), kanamycin 30 (mg/L); adjusted to pH 7.0 with NaOH]. Cultures are inoculated with 250 μL of a glycerol stock stored at −80° C. of E. coli BL21 [Novagen, Madison, USA; Genotype: E ompT hsdSB (rB^− mB^−) gal dcm (DE3)] harboring the plasmid pET28a-GFPuv which is obtained by inserting the GFPuv gene (isolated from pBAD-GFPuv through PCR) into the EcoRI site of pET28a (Novagen, Madison, USA) which placed the GFPuv gene under the control of the T7/Lac promotor system. Precultures are incubated at 37° C. for 10-12 h.
Experimental cultures are performed in a volume of 25 mL of the above described medium in 250 mL baffled shake flasks. Stabilizers are added to a final concentration of 5 mM as indicated from sterile stock solutions. Cultures are started by inoculating with the preculture to an OD600 at 600 nm of 0.25. Samples are taken for OD600 measurements. Cultures are induced by adding IPTG (Isopropyl-β-D-thiogalactoside) to a final concentration of 0.5 mM when the OD600 reaches 0.5. Samples of 1 mL are taken after induction for OD600 reading and GFP quantification. For GFP quantification 1 mL of the culture is harvested after 2-4 h and after 20 h after induction. Cells are collected by centrifugation at 16 000 g and the cell pellet is stored at −20° C. for further analysis. Analysis of in vivo GFP fluorescence is performed by the method described in Example 1.

Assay [4] relates to E. coli JM109. The assay is described as follows: Growth and GFP expression in high cell density fedbatch cultivation of E. coli JM109 in mineral medium. The settings on record: for Optical density Value / GFP expression (RFU/OD600) Value: additive 5 mM; for GFP expression Factor / Optical density Factor: relative to control = 1. As to the method: as §1
A first preculture of E. coli JM109 harboring the plasmid pBAD-GFPuv is initiated from glycerol stocks stored at −80° C. in 3 mL of LB medium containing 0.01% (v/v) Antifoam A (Fluka). After growth for 10-12 h it is used to seed 2×100 mL of mineral medium (as described in Example 1) containing 0.01% Antifoam A (silicone fluid containing a suspension of finely powdered silica to enhance its defoaming efficiency; Dow Corning Corporation, Midland, Mich., USA), in 1 L baffled shake flasks. After 10-12 h this culture is centrifuged resuspended in 50 mL mineral medium and is used to inoculate the main culture.
Cultivation is performed in BioFlow110 bioreactors (Total volume 2.2 L; New Brunswick Scientific, Nürtingen, Germany) filled with 1 L of mineral medium plus 0.01% (v/v) Antifoam A for the batch phase. Reactors are equipped with pH, pO2 and foam probes, mass flow controllers to control gas flow and ratio of air and pure oxygen and pumps for automated dosage of base (14% [v/v] aqueous NH3), antifoam (25% [v/v] Antifoam A) and nutrient feed solution. The agitation is set to 500 rpm and air is supplied at a gas flow rate of 2 L/min. The fedbatch culture is incoculated to an OD600 of 0.25-0.5 and allowed to grow unlimited with a specific growth rate of ˜0.5 h^−1. Growth is monitored by measuring OD600. When the disolved oxygen concentration decreases to 30%, automated adjustment of the air:oxygen ratio in the gas mix is started to control dO2 to 30% using a PID loop. When the gas mix consisted of 100% oxygen a further increase in oxygen transfer is achieved through increasing the agitation rate up to a maximum level of 1200 rpm. When glycerol in the batch medium is completely consumed, as indicated by a distinct drop of pure oxygen in the gas mix, feeding solutions (first containing 70 g/L glycerol and later as cell density increased 200 g/L glycerol in mineral medium) are pumped into the reactor by a predefined exponential fed scheme. The feeding rate is calculated to allow the cells to grow at a growth rate of approximately 0.15 h^−1. During the feeding phase dO2 is also kept at 30%. 3-6 h after starting the feeding protein expression is induced by the addition of 0.2 (w/v) L-arabinose. Samples are taken every hour for OD600 reading and to obtain cell pellets which are stored at −20° C. for further analysis. Analysis of in vivo GFP fluorescence is performed by the method described in Example 1.

[5] abbreviates: Experiment 6, process time 24.75 h.
Setting [6] is: Experiment 7, process time 17 h.

In the case of “Tris(tetramethylhydroxypiperidinol) citrate”, the “Growth (Final OD600)” value in assay [1] (Experiment 3, control 10.4) was 11.4 OD600. For the same molecule, the “GFP expression (Relative fluorescence unit*OD600^−1)” value in assay [1] (Experiment 3, control 1189) is reported as 2675 Relative fluorescence unit*OD600^−1.
Regarding `CC1(C)CC(O)CC(C)(C)N1O` [1,4-dihydroxy-2,2,6,6-tetramethylpiperidine], in assay [2] (additive 5 mM), the “mg FimH/g cell” value stood at 1.1 mg FimH/g cell, the “FimH” value stood at 9.1 ± 0.56 mg/L and the “Cell pellet” value amounted to 8.22 ± 0.35 g/L. Also, in assay [2] (additive 10 mM), the “mg FimH/g cell” value is reported as 1.22 mg FimH/g cell, the “FimH” value was determined as 9.59 ± 0.49 mg/L and the “Cell pellet” value amounted to 7.86 ± 0.25 g/L. Also, in assay [2] (additive 20 mM), the “mg FimH/g cell” value amounted to 1.26 mg FimH/g cell, the “FimH” value was 10.08 ± 0.66 mg/L and the “Cell pellet” value is 7.94 ± 0.33 g/L. In addition, the “Growth (Final OD600)” value in assay [3] (Experiment 2, additive 5 mM, 20 h after induction, control 3.3) is recorded as 3.19 OD600. Also, in assay [3] (Experiment 2, additive 5 mM, 20 h after induction, control 195), the “GFP expression (Relative fluorescence unit*OD600^−1)” value is given as 222 Relative fluorescence unit*OD600^−1. Further, in assay [3] (comment on Table 2), the “Effect on GFPuv expression and growth, in words” value is “shows at least some effect and is not detrimental”.
Take `CC1(C)CC(O)CC(C)(C)N1` [4-Hydroxy-2,2,6,6-tetramethyl-piperidine]: the “Optical density Value” in assay [4] (Experiment 6, process time 24.75 h, control 10.3) was 24.7; in assay [4] (Experiment 7, process time 17 h, control 56.4) it was 57.1. The “GFP expression (RFU/OD600) Value” in assay [4] (Experiment 6, process time 24.75 h, control 1038) came to 5507 RFU/OD600; in assay [4] (Experiment 7, process time 17 h, control 5765), 6438 RFU/OD600. Further, the “GFP expression Factor” value in assay [4] (setting [5]) is 5.3; in assay [4] (setting [6]) it was 1.12. The “Optical density Factor” value in assay [4] (setting [5]) is reported as 2.39; in assay [4] (setting [6]), 1.01. The “Growth (Final OD600)” value in assay [1] (Experiment 2, control 11.0) turned out to be 10.9 OD600. For the same molecule, the “GFP expression (Relative fluorescence unit*OD600^−1)” value in assay [1] (Experiment 2, control 1423) is 1646 Relative fluorescence unit*OD600^−1.

Values taken from patent US8859235B2, “Methods in cell cultures, and related inventions, employing certain additives” (priority 2009, dated 2014).
